Experimental data published in patent publication US10414754B2, “Indolizine compounds, a process for their preparation and pharmaceutical compositions containing them” (LES LABORATOIRES SERVIER, priority 2013, dated 2019).
Counter-ions that a name gives are not always drawn.

Experiments:
[1] = target: T1, Bcl-2 protein (histag-Bcl-2, UniProtKB P10415) (Homo sapiens, UniProt P10415); assay: Inhibition of Bcl-2 by the fluorescence polarisation technique; type: binding; conditions: for IC50: fluorescence polarisation, 2 hours incubation, read-out: IC50 (nM) Bcl-2 FP
T1 construct: His tag
Summary of the method: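 Fluorescence polarisation competition: His-tagged human Bcl-2 (2.50×10^−8 M final) was mixed with fluorescein-labelled peptide (1.00×10^−8 M final) and increasing compound concentrations. Buffer was 10 mM Hepes, 150 mM NaCl, 0.05% Tween20, pH 7.4. Polarisation was read after 2 h.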

[2] = system: RS4;11 leukaemia tumour line; assay: In vitro cytotoxicity (MTT) on RS4;11; type: cell-based; conditions: RS4;11 cells, 48 hours exposure
Procedure: The cytotoxicity studies were carried out on the RS4;11 leukaemia tumour line.
The cells are distributed onto microplates and exposed to the test compounds for 48 hours.
The cell viability is then quantified by a colorimetric assay, the Microculture Tetrazolium Assay (Cancer Res., 1987, 47, 939-942).

T1 sequence (P10415 whole entry): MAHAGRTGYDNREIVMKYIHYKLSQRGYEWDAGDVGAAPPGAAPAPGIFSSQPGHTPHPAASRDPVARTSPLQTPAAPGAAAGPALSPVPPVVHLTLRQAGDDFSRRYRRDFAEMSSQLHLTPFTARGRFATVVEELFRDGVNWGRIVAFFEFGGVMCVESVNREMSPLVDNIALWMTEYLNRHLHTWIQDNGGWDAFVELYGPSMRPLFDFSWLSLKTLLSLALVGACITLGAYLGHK

| Compound | IC50 [1] [nM] | IC50 ([2]; Homo sapiens) [nM] | percentage fluorescence polarisation inhibition (partial inhibitors), Bcl-2 FP ([1]; @ 10 μM test compound) [% @ 10 μM] | IC50 [2] [nM] |
| --- | --- | --- | --- | --- |
| CCCCN(CCCC)C(=O)c1cc(-c2cc3c(cc2C(=O)N2Cc4ccccc4C[C@H]2C)OCO3)n2c1CNCC2 [Example 78, N,N-Dibutyl-6-(6-{[(3R)-3-methyl-3,4-dihydroisoquinolin-2(1H)-yl]-carbonyl}-1,3-benzodioxol-5-yl)-1,2,3,4-tetrahydropyrrolo[1,2-a]pyrazine-8-carboxamide] | 823 | 1880 | – | – |
| CCCCN(C(=O)c1cc(-c2cc3c(cc2C(=O)N2Cc4ccccc4C[C@H]2C)OCO3)n2c1CNCC2)c1ccc(O)cc1 [Example 79, N-Butyl-N-(4-hydroxyphenyl)-6-(6-{[(3R)-3-methyl-3,4-dihydroiso-quinolin-2(1H)-yl]carbonyl}-1,3-benzodioxol-5-yl)-1,2,3,4-tetrahydropyrrolo[1,2-a]-pyrazine-8-carboxamide] | 99.1 | 1010 | – | – |
| CC(C)N(C(=O)c1cc(-c2cc3c(cc2C(=O)N2Cc4ccccc4C[C@H]2C)OCO3)n2c1CNCC2)c1ccc(O)cc1 [Example 80, N-(4-Hydroxyphenyl)-6-(6-{[(3R)-3-methyl-3,4-dihydroisoquinolin-2(1H)-yl]carbonyl}-1,3-benzodioxol-5-yl)-N-(propan-2-yl)-1,2,3,4-tetrahydro-pyrrolo[1,2-a]pyrazine-8-carboxamide] | 299 | 1880 | – | – |
| C[C@@H]1Cc2ccccc2CN1C(=O)c1cc2c(cc1-c1cc(C(=O)N(C)c3ccc(O)cc3)c3n1CCCC3)OCO2 [Example 81, N-(4-Hydroxyphenyl)-N-methyl-3-(6-{[(3R)-3-methyl-3,4-dihydroiso-quinolin-2(1H)-yl]carbonyl}-1,3-benzodioxol-5-yl)-5,6,7,8-tetrahydroindolizine-1-carboxamide] | 12.1 | 778 | – | – |
| C[C@H]1Cc2ccccc2CN1C(=O)c1cc2c(cc1-c1cc(C(=O)N(C)c3ccc(O)cc3)c3n1CCCC3)OCO2 [Example 82, N-(4-Hydroxyphenyl)-N-methyl-3-(6-{[(3S)-3-methyl-3,4-dihydroiso-quinolin-2(1H)-yl]carbonyl}-1,3-benzodioxol-5-yl)-5,6,7,8-tetrahydroindolizine-1-carboxamide] | – | – | 42 | 1880 |
| CN(C(=O)c1cc(-c2cc3c(cc2C(=O)N2CCc4ccccc4C2)OCO3)n2ccccc12)c1ccc(O)cc1 [Example 83, 3-[6-(3,4-Dihydroisoquinolin-2(1H)-ylcarbonyl)-1,3-benzodioxol-5-yl]-N-(4-hydroxyphenyl)-N-methylindolizine-1-carboxamide] | 35.8 | 1500 | – | – |
| Cc1cnn2cc(N(C(=O)c3cc(-c4cc5c(cc4C(=O)N4Cc6ccccc6C[C@H]4C)OCO5)n4ccccc34)c3ccc(O)cc3)cnc12 [Example 86, N-(4-Hydroxyphenyl)-3-[6-[(3R)-3-methyl-3,4-dihydro-1H-isoquinoline-2-carbonyl]-1,3-benzodioxol-5-yl]-N-(3-methylpyrazolo[1,5-a]pyrimidin-6-yl)-indolizine-1-carboxamide hydrochloride] | 5 | 20.1 | – | – |
